Where two headings read alike, the source gives them in different places.
Key:
[1] = test system: human colon carcinoma HT-29; test: Inhibition of nucleic acid synthesis in HT-29 cells in vitro; format: cell-based; conditions: 2-h exposure
Source text: In addition to the P388 cells, this inhibitory activity in human carcinoma HT-29 grown in tissue culture has been also examined. The values of the drug concentration producing 50% inhibition of the incorporation of [^3 H]-thymidine and [^14 C] uridine into nucleic acid macromolecules are presented in Table V. These values are taken as estimates of the inhibition of DNA and RNA synthesis. […] Furthermore, the inhibitory activities of these analogues are three-to fivefold higher than AMD; the order of potency of the analogues for their inhibition of DNA synthesis is:
DNA and RNA synthesis in P388 and HT-29 cells lines was monitored in the presence of drugs, and the rates of inhibition of their synthesis were estimated from the amounts of [2-^14 C]-uridine and [^3 H]-thymidine into RNA and DNA, respectively, according to the methods described previously.
In brief, for HT-29 colon carcinoma monolayer cells, 10^4 cells in each of five wells per concentration, were incubated with radiolabelec nucleosides ([…] each) for the last hour of a 2-h drug exposure, following which the cells were aspirated and washed with buffered medium. Cells were trypsinized and counted in the Coulter counter. The cell suspensions were then precipitated onto glass fiber filter discs (Whatman 934H), with 10% trichloracetic acid and twice with 95% ethanol and dried, and the incorporation of radionucleotides was estimated.
In addition, to investigate the cross contamination of radioactivity from [2^14 C] uridine, the cells were lysed with ice-cold 1% Triton X for 2.5 min. Macromolecules were precipitated with the addition of 10% perchloric acid (5% in the medium) and centrifuged; the pellet in 1% NaCl was treated with an equal volume of phenol reagent, the emulsion was centrifuged at 10000 g for 30 min at 4° C., and the separated layer was adjusted to 1% NaCl and treated with an equal volume of 2-ethoxyethanol to precipitate the nucleic acids. The precipitate was washed with 75% ethanol and dissolved in an aqueous solution containing 2% sodium acetate and 1.5% NaCl. An aliquot was used for estimation of the total radionucleotide incorporation. Ribonuclease, previously heated to 80° C. for 10 min to destroy deoxyribonuclease activity, was added, and the mixture was incubated at 37° C. for 30 min.
^a Human colon carcinoma in culture, IC50, drug concentration
producing a 50% inhibition of incorporation of precursor [^3 H]
thymidine into DNA and [^14 C] uridine into RNA in the cell lines,
isolated as acid preciptable materials. Data are average of replicate

lung LX-1 = test: Treatment of lung LX-1 tumor; format: in vivo; conditions: at the doses tested
rat liver microsomes [2] = test: Stimulation of NADPH oxidation by rat hepatic microsomal incubations; format: biochemical
Source text: (§1) It has been reported that the quinone imino chromophore of actinomycin can be subjected to enzyme-catalyzed single-electron reduction to give free-radical species that generate superoxides by reacting with molecular oxygen. The process needs a reductive cofactor NADPH, which is oxidized to NADP^+ during the process, giving a change in the absorbance at 340 nm that can be measured spectrophotometerically. Alternatively, the superoxides generated during the process may be allowed to react with epinephrine to produce adrenochrome, a chromophore with strong absorbance at 480 nm that can be measured spectrophotmetrically.
(§2) The superoxide formations were studied via NADPH oxidation catalyzed by AMD analogues in the presence of rat liver microsomes. […] The process of adrenochrome formation is inhibited by superoxide dismutase, confirming that superoxide is indeed generated in these systems.
(§3) ^a The percentage stimulation = (drugstimulated rate basal rate)/basa
(§4) rate × 100 and is shown in parentheses. NADPH oxidation was measure
(§5) at 340 nm and adrenochrome formation was measured at 489 nm; the values
(§6) are average ± standard errors of triplicate analyses. ^b SOD,

[3] = Toxic deaths in nontumored mice treated in parallel (colon 38 experiment); format: in vivo
Source text: × 100; in parenthesis, number of over 100 day survivors/number of
mice in a group of nontumored mice treated in parallel with the
tumorbearing mice and observed for 100 days.

P388 Leukemia = test: Minimum effective dose in P388 tumor bearing mice; format: in vivo
Source text: ^a Drugs administered ip once on days 1, 5, and 9 starting 1 day afte
tumor implantation. Determinations were made from analysis of plotted
logdose response data. ^b MED (minimum effective dose) is the dose
(milligram/killogram) providing an increase in life span of 45% over

[4] = Metabolism in tumor cell homogenate (T); format: in vitro ADME, murine; conditions: P388 homogenate (T), 37° C., 16 h
Method: (§7) In this respect, actinomycin is only about 30% as efficient as its synthetic analogues, RAD III (3c) and SAD (2) (Table II). Metabolic Studies, Metabolism in the Presence of Tumor Cell Homogenates and Rat Liver Microsomes. The cell homogenates (P388 cells were sonicated and were incubated at 37° C. with analogues for 16 h. Rat microsomes were harvested from phenobarbital-induced rats by standard procedure. Incubations were carried out for 6 h in the presence of a NADPH-generating system, i.e., glucose-6-phosphate dehydrogenase and glucose 6-phosphate. The metabolites and their water-soluble conjugates were isolated and identified with the use of tritiated analogues.
(§8) It was observed that the RAD analogues are metabolized to SAD (2) with the loss of oxazole ring. […] In tumor cells, a larger fraction of SAD (2) (30-50%) remains unmetabolized. SAD is found to form glucuronide and sulfate conjugates only in tumor cells. […] Isolation of SAD from RAD analogues is a very important step, because SAD is found to be a potent and effective antitumor agent in several murine tumor systems (Tables V-XII).

rat liver microsomes [5] = test: Metabolism in rat liver microsomes (M); format: in vitro ADME; conditions: 6 h, NADPH-generating system
Method: as §7, §8

rat liver microsomes [6] = test: Stimulation of adrenochrome formation (superoxide) by rat hepatic microsomal incubations; format: biochemical
Source text: as §1, §2, §3, §4, §5, §6

[7] = test system: P388/ADR (adriamycin resistant) leukemia; test: Antitumor activity in vivo, P388/ADR leukemia; set-up: species or system mice; conditions: at optimal dose, ip days 1, 5, 9
Method: The analogues were also tested against P388/ADR murine leukemia following the standard protocol (Table VI).
ILS = percent increase in life span.

With Cc1c2oc3c(C)c4oc(CC(=O)NCCCCN)nc4c(C(=O)N[C@@H]4C(=O)N[C@H](C(C)C)C(=O)N5CCC[C@H]5C(=O)N(C)CC(=O)N(C)[C@@H](C(C)C)C(=O)O[C@@H]4C)c3nc-2c(C(=O)N[C@@H]2C(=O)N[C@H](C(C)C)C(=O)N3CCC[C@H]3C(=O)N(C)CC(=O)N(C)[C@@H](C(C)C)C(=O)O[C@@H]2C)c(N)c1=O [RAD III (3c)] the IC50 ([1]; [3H]thymidine incorporation, read-out: IC50, DNA synth) was 0.365 ± 0.045 µM, the IC50 ([1]; [14C]uridine incorporation, read-out: IC50, RNA synth) was 0.045 ± 0.008 µM and the “response of lung LX-1 to treatment” value (lung LX-1) was “practically ineffective”. The “percentage stimulation of NADPH oxidation” value (rat liver microsomes [2]; (drug-stimulated rate - basal rate)/basal rate × 100) was 812%, the NADPH oxidation (rat liver microsomes [2]; measured at 340 nm, average ± standard error of triplicate) was 87.1 ± 7.1 nmol/min per mg of protein and the toxic deaths ([3]; dose 0.30 mg/kg iv days 1, 5, 9) was 0/9. For the same compound, the toxic deaths ([3]; dose 0.60 mg/kg iv days 1, 5, 9) was 4/9, the toxic deaths ([3]; dose 1.20 mg/kg iv days 1, 5, 9) was 2/9 and the “therapeutic index MTD/MED” value (P388 Leukemia; MTD in normal BDF1 mice / MED in P388 tumor bearing mice) was 70. For the same compound, the “MED (minimum effective dose), dose giving 45% increase in life span over control” value (P388 Leukemia; ip once on days 1, 5, and 9, from plotted log-dose response data) was 0.05 milligram/killogram, the “percent isolated: tissue bound” value [4] was 5.0 ± 1.0% and the “percent isolated: unidentified metabolite” value [4] was 5.0 ± 2.0%. The “percent metabolite isolated: SAD” value [4] was 20.0 ± 2.0%, the “percent metabolite isolated: SAD-glucuronide and/or sulfate” value [4] was 40.0 ± 5.5% and the “percent metabolite isolated: protein conjugates” value [4] was 8.0 ± 2.0%. For the same compound, the percent unconverted drug [4] was 20.0 ± 2.5%, the “percent isolated: tissue bound” value (rat liver microsomes [5]) was 5.0 ± 0.5% and the “percent isolated: unidentified metabolite” value (rat liver microsomes [5]) was 8.0 ± 1.0%. The “percent metabolite isolated: SAD” value (rat liver microsomes [5]) was 65.0 ± 5.5%, the “percent metabolite isolated: SAD-glucuronide and/or sulfate” value (rat liver microsomes [5]) was “nil” and the “percent metabolite isolated: protein conjugates” value (rat liver microsomes [5]) was 10.0 ± 10%. The percent unconverted drug (rat liver microsomes [5]) was 10.0 ± 1.0%, the “adrenochrome formation in presence of SOD” value (rat liver microsomes [6]; with SOD (superoxide dismutase) 5 ug/mL) was “inhibited” and the “percentage stimulation of adrenochrome formation” value (rat liver microsomes [6]; without SOD, (drug-stimulated rate - basal rate)/basal rate × 100) was 870%. For the same compound, the adrenochrome formation (rat liver microsomes [6]; without SOD, average ± standard error of triplicate) was 22.1 ± 2.2 nmol/min per mg of protein and the “tumor free survivors/total on day 60” value [7] was 2/8.

— patent US4966962A, “Reverse analogue of actinomycin D” (Trustees of Boston University, priority 1988, dated 1990)
